Results taken from patent US20110281834A1, “Pharmaceutical Formulations for Iontophoretic Delivery of a Corticosteroid” (priority 2008, published 2011).
Like-named read-outs stand apart in the source and are kept apart here. One block for each molecule: values may come before it.

Tests used:
[1] = In vivo skin delivery: tape stripping (stratum corneum) and skin extraction (underlying skin); design: species or system hairless rat
Text: After wiping excess drug off the skin using a moist kimwipe, pre-weighed tape strips were placed on the area exposed to the drug and made sure they adhered to the skin by rolling with a glass rod for 30 seconds. After rolling, the tape strips were held from one end with a pair of forceps and ripped off the skin very quickly. The first strip was discarded to remove the remnants of the drug on the skin. This process was continued with 30 strips to fully remove the stratum corneum and each strip analyzed for drug content by immersing in 1 mL extraction buffer for 1 hr under gentle stirring (150 rpm). […] All tape strip extracts were analyzed with HPLC. […] TEWL values were also recorded after every five strips.
After tape stripping, the rats were euthanized and the underlying skin excised. Before proceeding for skin extraction studies, the weight of the excised skin piece was recorded. This excised skin was minced into small pieces and placed into glass vials. To this minced skin, 1 mL deionised water was added and shaken for 30 minutes on a shaker. To this 100 μL of 0.1% HCl was added and centrifuged. To the centrifuged sample 6 mL of methylene chloride was added and shaken for 30 minutes. The methylene chloride (organic) extract was then evaporated under nitrogen. The methylene chloride addition and evaporation step was repeated and combined with the previous extraction. After evaporation, the samples were reconstituted using 1 mL of acetonitrile, filtered and filled in HPLC vials and analyzed accordingly. For TMCA, 30/70 chloroform and methanol was used as the extraction solvent. […] The measured drug levels from the skin were corrected for recovery.
(§1) The effect of iontophoresis on the intradermal and transdermal permeation of TMCA using hairless rat skin in vitro was investigated using methods previously described. In addition, the amount of drug deposited in the stratum corneum and underlying skin after iontophoresis was quantified in vivo using tape stripping and skin extraction methods described previously. TMCA (3.5 mg/ml) was formulated in 15% cremophor RH40, 25% PEG 400 and 25% ethanol (95%), in citrate buffer pH 5.0. Anodal iontophoresis was performed for 1 h at 0.2 mA/cm^2.
Hairless rats (n=4 per group) were anesthetized with ketamine (75 mg/kg) and xylazine (10 mg/kg) administered intraperitoneally. Once the rats were anaesthetized, the abdominal area was wiped with water and alcohol swabs. The cartridge loaded with the donor formulation was placed on the abdomen of each rat and connected to the power supply (Keithley Instruments, Cleveland, Ohio) for cathodal delivery. The counter electrode was placed around 3 cm away from the drug cartridge, and connected to the respective polarity of the power supply. The cartridge and the counter electrode were made sure to be in contact with the skin and a bandage was placed to prevent them from any further movement. Skin portion around the cartridge approximately 0.5 cm was marked for excision after the study to determine the lateral diffusion of the drug. Iontophoresis was conducted at a current density of 0.2 mA/cm^2 for 15 or 60 minutes. The donor cartridge was removed from the skin after iontophoresis and the skin was wiped with a moist kimwipe to remove any remaining drug on the skin. The skin was then tape stripped (30 strips) to remove the stratum corneum and the drug in the strips evaluated (with the first strip discarded for surface drug removal). The drug in the underlying skin was then extracted.

[2] = Iontophoretic drug permeation through hairless rat skin in Franz diffusion cells; type: in vitro ADME
Procedure: Full thickness abdominal skin freshly excised from sacrificed hairless rats was equilibrated in the receptor buffer and mounted on Franz diffusion cells (0.64 cm^2). The donor compartment (0.5 ml) contained corticosteroid in an appropriate buffer. […] For triamcinolone acetonide (TMCA), 3.5 mg/mL TMCA formulation (in 25% w/w PEG 400, 25% ETOH, 15% cremophor RH40, qs to 100% with citrate buffer pH 5.0) was used for the donor compartment. […] The receptor compartment for TMCA was citrate buffer with 20% ethanol. […] TMCA has no charge at pH 5 and was therefore delivered by anodal iontophoresis to utilize electroosmosis. […] For TMCA, the anode (Silver-Silver Chloride) was placed in the donor chamber along with drug solution and the cathode (Silver wire) was placed in the receptor chamber. Electric current (0.2 to 0.4 mA/cm^2) was applied using a custom current control device for up to 1 hr, after which experiments were either terminated or allowed to continue passively for various durations. Samples (0.3 ml) were taken from the receptor chamber at predetermined time points following iontophoresis and were replaced with the same amount of receptor buffer. The apparatus was maintained at 37° C. with constant stirring in both the donor and receptor compartments to maintain sink conditions. The samples were then analyzed by HPLC to measure drug permeation through skin. […] The mobile phase consisted of 75/25 ammonium acetate (5 mM) and acetonitrile. For TMCA, samples of receptor fluid (injection volume 20 uL, run time 8 min) were analyzed using the same HPLC system with a flow rate of 0.8 ml/min and UV detection at 237 nm. The mobile phase consisted of 70/30 methanol and water. […] Control passive experiments were conducted in the same way except for the application of electric current. Data were expressed as means±standard deviations. All experiments were performed in at least triplicate.
Samples were removed periodically from the receptor and analyzed by HPLC.
Samples were measured periodically from the receptor and analyzed by HPLC over 24 hrs.
as §1

[3] = Solubility in solubilizer solutions (shaken overnight, supernatant by HPLC); type: physicochemical; settings: for solubility: solubilizer solution, thermodynamic from solid, read-out: Solubility, Final conc
Procedure: Triamcinolone acetonide is poorly ionized and has a poor solubility profile; to overcome this, individual as well as combinations of potential solubilizers were tested. TMCA (2.5 mg) was mixed into 1 mL of the individual components or mixtures of potential solubilizers and shaken overnight; drug was then added to all clear solutions which were then mixed overnight. The samples were then centrifuged and the supernatants analyzed by HPLC to determine drug solubility.
DEX-P (100 mg) was mixed into 1 mL of the individual components or mixtures of potential solubilizers and shaken overnight. Additional drug (100 mg) was added to clear solutions and mixed overnight. The samples were then centrifuged and the supernatants analyzed by HPLC to determine drug solubility.

[4] = cathodal 0.2 mA/cm2 for 15 minutes, FIG. 6B
[5] = cathodal 0.2 mA/cm^2 for 60 minutes, FIG. 6A
[6] = 3.5 mg/ml, pH 5.0, anodal iontophoresis 0.2 mA/cm^2 for 1 h
[7] = 3.5 mg/ml, pH 5.0, passive delivery

- initial drug level in stratum corneum, iontophoresis 15 min [1, 4]: 13.63 ± 2.4 µg
- initial drug level in underlying skin, iontophoresis 15 min [1, 4]: 1.70 ± 1.70 µg
- amount in stratum corneum, iontophoresis 60 min [1, 5]: 23.70 ± 6.19 µg
- amount in underlying skin, iontophoresis 60 min [1, 5]: 2.18 ± 0.69 µg
- total delivered into skin, iontophoresis ([1]; phosphate buffer pH 7.4, cathodal 0.2 mA/cm^2 for 60 minutes, immediately after, FIG. 6A): 25.88 ± 5.91 µg
- total delivered into skin, passive ([1]; phosphate buffer pH 7.4, passive treatment 60 minutes, FIG. 6A): 13.31 ± 2.69 µg
- drug in peripheral skin areas outside the contact area (lateral diffusion) ([1]; skin about 0.5 cm around the cartridge): No drug was detected
- cumulative permeation over 24 hrs, passive ([2]; 25 mg/mL in phosphate buffer pH 7.4, passive delivery (no current), FIG. 2): initially low but gradual increase
- permeation over time, 4 hr iontophoresis ([2]; 25 mg/mL, pH 7.4, cathodal 0.4 mA/cm^2 for 4 hr, FIG. 3): highest permeation
- permeation over time, 25 and 50 mg/mL ([2]; 25 and 50 mg/mL in phosphate buffer pH 7.4, cathodal 0.2 mA/cm^2 for 1 hr, 24 hrs, FIG. 4): similar
- solubility ([3]; aqueous buffer, Phosphate buffer): 70000 µg/mL
- solubility ([3]; aqueous with cosolvent or surfactant or cyclodextrin, 15% ethanol (95%), 20% PEG400, 20% glycerin, in phosphate buffer (w/w)): 156000 µg/mL
- solubility ([3]; aqueous with cosolvent or surfactant or cyclodextrin, 15% ethanol (95%), 30% PEG400, 20% glycerin, in phosphate buffer (w/w)): 197000 µg/mL
Compound: C[C@@H]1C[C@H]2[C@@H]3CCC4=CC(=O)C=C[C@]4(C)[C@@]3(F)[C@@H](O)C[C@]2(C)[C@@]1(O)C(=O)COP(=O)(O)O [DEX, dexamethasone sodium phosphate]
- drug level in the skin over time after iontophoresis (depot) ([1]; 0.2 mA/cm2 for 15 minutes, measured 0, 24 and 48 hours after, FIG. 6C): decreased slowly over time and was detectable at 48 hrs after iontophoresis
- localization of drug in skin, passive ([1]; passive group, 60 minutes): all of the drug was localized in the stratum corneum layer
- permeation over time, 10 mg/mL ([2]; 10 mg/mL in phosphate buffer pH 7.4, cathodal 0.2 mA/cm^2 for 1 hr, 24 hrs, FIG. 4): lower permeation over time compared to the higher drug concentrations
- cumulative permeation over 24 hrs, iontophoresis ([2]; 25 mg/mL in phosphate buffer pH 7.4, cathodal 0.4 mA/cm^2 for 1 hr, sampled 24 hrs, FIG. 2): increased quite rapidly during the initial several hours and continued to increase up to 24 hrs
- cumulative permeation, cathodal vs anodal iontophoresis ([2]; 25 mg/mL, cathodal in phosphate buffer pH 7.4 vs anodal in citrate buffer pH 3.5, 0.4 mA/cm^2 for 2 hours, sampled for 24 hrs, FIG. 1): significant improvement in permeation compared to anodal iontophoresis

Compound: CC1(C)O[C@@H]2C[C@H]3[C@@H]4CCC5=CC(=O)C=C[C@]5(C)[C@@]4(F)[C@@H](O)C[C@]3(C)[C@]2(C(=O)CO)O1 [TMCA, triamcinolone acetonide]
- amount deposited in the underlying skin after tape stripping, iontophoresis [1, 6]: 1.15 ± 0.32 µg
- amount in the stratum corneum, iontophoresis [1, 6]: 16.43 ± 1.99 µg
- amount deposited in the underlying skin after tape stripping, passive [1, 7]: 0.34 ± 0.08 µg
- amount in the stratum corneum, passive [1, 7]: 19.66 ± 1.35 µg
- levels in the receptor chamber ([2]; 3.5 mg/ml in 15% cremophor RH40, 25% PEG 400, 25% ethanol, citrate buffer pH 5.0, with or without anodal iontophoresis 0.2 mA/cm^2 for 1 h): No detectable levels
- Solubility, Final conc ([3]; 15% cremophor, 25% ethanol, 25% PEG 400 (w/w)): 4420 µg/mL
- Solubility, Final conc ([3]; 15% cremophor, 25% ethanol, 25% PEG 3350 (w/w)): 1980 µg/mL
- solubility ([3]; aqueous with cosolvent or surfactant or cyclodextrin, 5% tween 80 (w/w)): 120 µg/mL
- solubility ([3]; aqueous with cosolvent or surfactant or cyclodextrin, 15% cremophor (w/w)): 480 µg/mL
- solubility ([3]; aqueous with cosolvent or surfactant or cyclodextrin, 15% cremophor, 25% ethanol (w/w)): 1380 µg/mL
- solubility ([3]; aqueous with cosolvent or surfactant or cyclodextrin, 15% cremophor, 25% ethanol, 25% glycerin (w/w)): 2430 µg/mL
- solubility ([3]; aqueous with cosolvent or surfactant or cyclodextrin, 15% cremophor, 50% PEG 400 (w/w)): 1240 µg/mL
- solubility ([3]; aqueous with cosolvent or surfactant or cyclodextrin, 15% cremophor, 50% glycerin (w/w)): 1180 µg/mL
- solubility ([3]; aqueous with cosolvent or surfactant or cyclodextrin, 25% PEG 400 (w/w)): 70 µg/mL
- solubility ([3]; aqueous with cosolvent or surfactant or cyclodextrin, 25% PEG 3350 (w/w)): 80 µg/mL
- solubility ([3]; aqueous with cosolvent or surfactant or cyclodextrin, 25% Propylene glycol (w/w)): 60 µg/mL
- solubility ([3]; aqueous with cosolvent or surfactant or cyclodextrin, 25% ethanol (w/w)): 230 µg/mL
- solubility ([3]; aqueous with cosolvent or surfactant or cyclodextrin, 25% glycerin (w/w)): 30 µg/mL
